Measurements from patent US9394288B2, “Compositions and methods for the treatment of asthma and allergy” (CELLIX BIO PRIVATE LIMITED, priority 2012, dated 2016).

System: TNB/ethanol colitis
Test: Intracolonic administration in rat model of chronic colitis (TNB/ethanol): macroscopic colonic damage
Assay type: in vivo, Sprague-Dawley rats
Conditions: for macroscopic damage score: after four weeks of treatment, daily enema 50 mg/kg (Formula I (1-1): zileuton equivalent), p=0.026
Experimental: Female virgin Sprague-Dawley rats weighing 200-250 g were used in this study. The animals were maintained in a restricted access room with controlled temperature (23° C.) and light/dark cycle (16 h:8 h). The rats were housed in individual isolated rack mounted wire cages.
TNB/ethanol colitis was induced in 90 rats. Animals were thereafter randomised into four therapeutic groups to receive daily, from day 1 (24 hours after induction of colitis):
Group A (n=30)−0.25 ml of vehicle solution enema (1-5% carboxymethylcellulose in saline serum) (placebo group).
Group B (n=30)−0.25 ml of the vehicle solution enema added with 50 mg/kg of body weight of 5-ASA.
Group C (n=30)−0-25 ml of the vehicle solution enema added with 50 mg/kg of body weight of zileuton.
Group D (n=30)−0-25 ml of the vehicle solution enema added with 50 mg/kg of body weight of Formula I (1-1) equivalent of zileuton.
In addition, sham colitis was induced, by intrarectal administration of 0-25 ml of 0.9°/0 saline, in 10 rats (control group). At day 1 and 3, and at weeks 1, 2, and 4, 10 rats from groups A, B, C and D were randomly selected for the assessment of eicosanoid release in the lumen of the colon by intracolonic dialysis. Rats were anaesthetised with 100 mg of intraperitoneal thiopental and intracolonic dialysis was performed using hydrated Visking seamless cellulose tubing (8/32, 6-3 mm diameter, 7 cm long; Medicell International, London) attached by a 10 cm polyurethane cannula to an external syringe. After inserting the entire cannula into the distal colon, the dialysis bag was filled with 1 ml of dialysis solution, consisting of 0.3°/o bovine serum albumin in a solution of 120 mmol/1 NaCl and 30 mmol/1 KHCO3 adjusted to pH 7.90. One hour later, the fluid was withdrawn and immediately stored at −30 C. The volume of the dialysate recovered at the end of the one hour period was higher than 90%. In the control group (n=10), an intracolonic dialysis was performed in the same way 24 hours after the sham colitis induction. The day after the dialysis was performed at weeks 1, 2, and 4, the same animals were given a distal colectomy under total anaesthesia with 100 mg of intraperitoneal thiopental, to assess colonic inflammation macroscopically and histologically. The excised colon was opened longitudinally, rinsed with normal saline, pinned out on a wax block, and assigned a code number. Mucosal damage was assessed macroscopically as described later. Afterwards, three tissue specimens (2×10 mm) were obtained from the colon. When no severely visible inflammation was present, the specimens were taken from the regions 1 cm, 3 cm, and 8 cm proximal to the anus. When visible lesions were present, the specimens were taken from the affected regions. Tissue samples were fixed in formaldehyde and routinely processed. […]

Nc1ccc(O)c(C(=O)O)c1 [5-ASA]
macroscopic damage score: 7.3 (0.7)

CC/C=C\C/C=C\C/C=C\C/C=C\C/C=C\CCCC(=O)NC(=O)N(O)C(C)c1cc2ccccc2s1 (stereo not shown) [Formula I (1-1)]
macroscopic damage score: 4.36 (0.6) | all parameters measured by the score, mainly the development of strictures (at four weeks, compared with 5-ASA, zileuton and placebo): improved

CC(c1cc2ccccc2s1)N(O)C(N)=O (stereo not shown) [zileuton]
macroscopic damage score: 5.6 (0.7)
